pEC50: −log10 of the molar value. Like-named read-outs stand apart in the source and are kept apart here.
Assays:
DENV (serotype 2) = test: microbe, parasite or virus in culture; format: cell-based, Dengue virus serotype 2; details: for pEC50: read-out: Dengue EC50
in vitro [1] = test: in vitro
YFV = test: microbe, parasite or virus in culture; format: cell-based, yellow fever virus; details: for pEC50: read-out: Yellow fever EC50
in vitro [2] = details: chlorocebus aethiops, Yellow fever CC50

| Structure (SMILES) | Dengue SI (DENV (serotype 2)) | pEC50 (DENV (serotype 2); Dengue virus, Vero B) | CC50 (in vitro [1]; chlorocebus aethiops) [µM] | pEC50 (YFV; Yellow fever virus, Vero B) | CC50 (in vitro [2]) [µM] | Yellow fever SI (YFV) | also measured |
| --- | --- | --- | --- | --- | --- | --- | --- |
| Cc1ccc(NC(=O)c2nccnc2C(=O)Nc2ccc(F)cc2)c(-c2cc(C)n[nH]2)c1 [6a, N^2-(4-fluorophenyl)-N^3-(4-methyl-2-(3-methyl-1H-pyrazol-5-yl)phenyl) pyrazine-2,3 dicarboxamide] | >4 | 4.58 | > 116 | – | – | – | fold reduction in inhibitory properties against dengue virus (DENV (serotype 2)): 10 fold |
| Cc1ccc(NC(=O)c2nccnc2C(=O)Nc2ccc(C)cc2-c2cc(C)n[nH]2)cc1 [6b, N^2-(4-methyl-2-(3-methyl-1H-pyrazol-5-yl)phenyl)-N^3-(p-tolyl)pyrazine-2,3-dicarboxamide] | >235 | 6.30 | > 117 | – | – | – | fold increase of DENV inhibitory properties (DENV (serotype 2)): 50 fold; CC50 (in vitro [1]; green monkey): > 116 µM |
| Cc1ccc(NC(=O)c2nccnc2C(=O)Nc2ccc(F)cc2)c(-c2cccs2)c1 [6c, N^2-(4-fluorophenyl)-N^3-(4-methyl-2-(thiophen-2-yl)phenyl)pyrazine-2,3-dicarboxamide] | >25 | 5.34 | > 116 | 4.64 | > 116 | – | – |
| Cc1ccc(NC(=O)c2nccnc2C(=O)Nc2ccc(C)cc2-c2cccs2)cc1 [6d, N^2-(4-methyl-2-(thiophen-2-yl)phenyl)-N^3-(p-tolyl)pyrazine-2,3-dicarboxamide] | >235 | 6.30 | > 117 | – | – | – | fold increase in DENV activity for the methyl congener (DENV (serotype 2)): 10 fold; CC50 (in vitro [1]; green monkey): > 116 µM |
| Cc1ccc(NC(=O)c2nccnc2C(=O)Nc2ccc(F)cc2)c(-c2ccc(C)s2)c1 [6e, N^2-(4-fluorophenyl)-N^3-(4-methyl-2-(5-methylthiophen-2-yl)phenyl)pyrazine-2,3-dicarboxamide] | 1 | < 3.95 | > 112 | – | – | – | Dengue EC50 (DENV (serotype 2)): complete loss of DENV inhibitory activity |
| Cc1ccc(NC(=O)c2nccnc2C(=O)Nc2ccc(C)cc2-c2ccc(C)s2)cc1 [6f, N^2-(4-methyl-2-(5-methylthiophen-2-yl)phenyl)-N^3-(p-tolyl)pyrazine-2,3-dicarboxamide] | 1 | < 3.95 | > 113 | – | – | – | Dengue EC50 (DENV (serotype 2)): complete loss of DENV inhibitory activity |
| Cc1ccc(NC(=O)c2nccnc2C(=O)Nc2ccc(F)cc2)c(-c2ccsc2)c1 [6g, N^2-(4-fluorophenyl)-N^3-(4-methyl-2-(thiophen-3-yl)phenyl)pyrazine-2,3-dicarboxamide] | >55 | 5.68 | > 116 | 4.97 | > 116 | >11 | – |
| Cc1ccc(NC(=O)c2nccnc2C(=O)Nc2ccc(C)cc2-c2ccsc2)cc1 [6h, N^2-(4-methyl-2-(thiophen-3-yl)phenyl)-N^3-(p-tolyl)pyrazine-2,3-dicarboxamide] | >29 | 5.47 to 6.30 | – | < 3.94 | > 116 | 1 | pEC50 (DENV (serotype 2)): > 6.05; CC50 at 168 h (in vitro [1]; chlorocebus aethiops): 26 µM |
| O=C(NCc1ccccc1-c1ccsc1)c1nccnc1C(=O)Nc1ccc(F)cc1 [6i, N^2-(4-fluorophenyl)-N^3-(2-(thiophen-3-yl)benzyl)pyrazine-2,3-dicarboxamide] | 2 | 4.62 | – | 5.41 | – | 19 | CC50 at 168 h (in vitro [1]; chlorocebus aethiops): 52 µM; CC50 at 168 h (in vitro [2]): 76 µM |
| Cc1ccc(NC(=O)c2nccnc2C(=O)NCc2ccccc2-c2ccsc2)cc1 [6j, N^2-(2-(thiophen-3-yl)benzyl)-N^3-(p-tolyl)pyrazine-2,3-dicarboxamide] | 1 | < 4.32 | – | – | – | 14 | pEC50 (YFV): 5.27; CC50 at 168 h (in vitro [1]; chlorocebus aethiops): 48 µM; CC50 at 168 h (in vitro [2]): 75 µM |
| O=C(NCc1ccc(-c2ccsc2)cc1)c1nccnc1C(=O)Nc1ccc(F)cc1 [6k, N^2-(4-fluorophenyl)-N^3-(4-(thiophen-3-yl)benzyl)pyrazine-2,3-dicarboxamide] | 1 | < 3.94 | > 116 | 4.73 | > 116 | >6 | – |
| Cc1ccc(NC(=O)c2nccnc2C(=O)NCc2ccc(-c3ccsc3)cc2)cc1 [6l, N^2-(4-(thiophen-3-yl)benzyl)-N^3-(p-tolyl)pyrazine-2,3-dicarboxamide] | >8 | 4.85 | > 117 | 4.67 | > 117 | >5 | fold increase in DENV activity for the methyl congener (DENV (serotype 2)): 10 fold |
| Cc1cc(-c2ccccc2NC(=O)c2nccnc2C(=O)Nc2ccc(F)cc2)[nH]n1 [6m, N^2-(4-fluorophenyl)-N^3-(2-(3-methyl-1H-pyrazol-5-yl)phenyl)pyrazine-2,3-dicarboxamide] | >55 | 5.66 | > 120 | 5.11 | – | 10 | fold increase of DENV inhibitory properties (DENV (serotype 2)): 12 fold; CC50 at 168 h (in vitro [2]): 77 µM |
| Cc1ccc(NC(=O)c2nccnc2C(=O)Nc2ccccc2-c2cc(C)n[nH]2)cc1 [6n, N^2-(2-(3-methyl-1H-pyrazol-5-yl)phenyl)-N^3-(p-tolyl)pyrazine-2,3-di-carboxamide] | 7 | 5.47 | – | 6.40 | > 13.6 | >34 | fold reduced DENV inhibitory activity (DENV (serotype 2)): 7 fold; CC50 at 168 h (in vitro [1]; chlorocebus aethiops): 24 µM |
| Cc1ccc(NC(=O)c2ccccc2C(=O)Nc2ccc(F)cc2)c(-c2cc(C)n[nH]2)c1 [7a, N^1-(4-fluorophenyl)-N^2-(4-methyl-2-(3-methyl-1H-pyrazol-5-yl)phenyl)phthal-amide] | >235 | 6.30 | > 117 | – | – | – | fold more inhibitory against dengue virus (DENV (serotype 2)): 5 fold |
| Cc1ccc(NC(=O)c2ccccc2C(=O)Nc2ccc(F)cc2)c(-c2cccs2)c1 [7b, N^1-(4-fluorophenyl)-N^2-(4-methyl-2-(thiophen-2-yl)phenyl)phthalamide] | >29 | 5.40 | > 117 | 4.63 | > 37 | >1.6 | – |
| Cc1ccc(NC(=O)c2ccccc2C(=O)Nc2ccc(C)cc2-c2cc(C)n[nH]2)cc1 [7c, N^1-(4-methyl-2-(3-methyl-1H-pyrazol-5-yl)phenyl)-N^2-(p-tolyl)phthalamide] | >4 | 4.54 | > 117 | – | – | – | fold loss in DENV inhibitory activity (DENV (serotype 2)): 60 fold |
| Cc1ccc(NC(=O)c2ccccc2C(=O)Nc2ccc(C)cc2-c2cccs2)cc1 [7d, N^1-(4-methyl-2-(thiophen-2-yl)phenyl)-N^2-(p-tolyl)phthalamide] | >8 | 4.85 | > 117 | 4.63 | > 37 | >1.6 | – |
| Cc1ccc(NC(=O)c2ccccc2C(=O)Nc2ccc(C)cc2-c2ccc(C)s2)cc1 [7e, N^1-(4-methyl-2-(5-methylthiophen-2-yl)phenyl)-N^2-(p-tolyl)phthalamide] | >57 | 5.70 | > 114 | 5.17 | – | 3.4 | CC50 at 168 h (in vitro [2]): 23 µM |
| Cc1ccc(NC(=O)c2ccccc2C(=O)Nc2ccc(F)cc2)c(-c2ccc(C)s2)c1 [7f, N^1-(4-fluorophenyl)-N^2-(4-methyl-2-(5-methylthiophen-2-yl)phenyl)phthalamide] | >39 | 5.54 | > 113 | 5.17 | > 113 | >17 | – |
| Cc1ccc(NC(=O)c2ccccc2C(=O)Nc2ccc(C)cc2-c2ccsc2)cc1 [7g, N^1-(4-methyl-2-(thiophen-3-yl)phenyl)-N^2-(p-tolyl)phthalamide] | – | 6.30 | – | 5.72 | > 117 | >60 | pEC50 (DENV (serotype 2)): 6.15; CC50 at 168 h (in vitro [1]; chlorocebus aethiops): 12.9 µM; CC50 (in vitro [1]; green monkey): > 116 µM |
| Cc1ccc(NC(=O)c2ccccc2C(=O)Nc2ccc(F)cc2)c(-c2ccsc2)c1 [7h, N^1-(4-fluorophenyl)-N^2-(4-methyl-2-(thiophen-3-yl)phenyl)phthalamide] | 16 | 5.52 | – | 5.19 | – | 10 | CC50 at 168 h (in vitro [1]; chlorocebus aethiops): 47 µM; CC50 at 168 h (in vitro [2]): 67 µM |
| Cc1ccc(NC(=O)c2ccccc2C(=O)NCc2ccccc2-c2ccsc2)cc1 [7j, N^1-(2-(thiophen-3-yl)benzyl)-N^2-(p-tolyl)phthalamide] | 17 | 5.52 | – | 5.59 | – | 23 | CC50 at 168 h (in vitro [1]; chlorocebus aethiops): 50 µM; CC50 at 168 h (in vitro [2]): 61 µM |
| O=C(NCc1ccc(-c2ccsc2)cc1)c1ccccc1C(=O)Nc1ccc(F)cc1 [7k, N^1-(4-fluorophenyl)-N^2-(4-(thiophen-3-yl)benzyl)phthalamide] | >7 | 4.80 | > 116 | 5.13 | > 117 | >16 | – |
| Cc1ccc(NC(=O)c2ccccc2C(=O)NCc2ccc(-c3ccsc3)cc2)cc1 [7l, N^1-(4-(thiophen-3-yl)benzyl)-N^2-(p-tolyl)phthalamide] | >8 | 4.86 | > 117 | 5.48 | > 117 | >35 | – |
| Cc1cc(-c2ccccc2NC(=O)c2ccccc2C(=O)Nc2ccc(F)cc2)[nH]n1 [7m, N^1-(4-fluorophenyl)-N^2-(2-(3-methyl-1H-pyrazol-5-yl)phenyl)phthalamide] | 1 | < 3.92 | > 120 | 4.92 | > 120 | >10 | – |
| Cc1ccc(NC(=O)c2ccccc2C(=O)Nc2ccccc2-c2cc(C)n[nH]2)cc1 [7n, N^1-(2-(3-methyl-1H-pyrazol-5-yl)phenyl)-N^2-(p-tolyl)phthalamide] | >9 | 4.85 | > 122 | 5.24 | > 122 | >21 | – |
| Cc1ccc(NC(=O)c2nc[nH]c2C(=O)Nc2ccc(F)cc2)c(-c2cc(C)n[nH]2)c1 [compound 1] | – | 5.60 | – | 5.46 | – | – | – |

Reference: paper PMC4999056 (European Journal of Medicinal Chemistry, 2016)
